Experimental data: US20250268884A1, “Deuterated Domperidone for Treating Gastroparesis” (CinDome Pharma, Inc., priority 2022, published 2025)

What was measured:
[1] = Thorough QT study, plasma pharmacokinetics; format: in vivo, human; settings: healthy subjects
From the text: Blood samples for PK determination were drawn at the same time points immediately after the ECG extractions.

[2] = system: adults with idiopathic or diabetic gastroparesis; test: ANMS GCSI-DD total and subscale scores, protocol-specified scoring method, Phase 2a; format: in vivo, human; set-up: key to ANMS GCSI-DD total score, Day 14/EOT, mean / ANMS GCSI-DD nausea/vomiting subscale score, Day 14/EOT, mean / ANMS GCSI-DD postprandial fullness/early satiety subscale score, Day 14/EOT, mean / ANMS GCSI-DD bloating subscale score, Day 14/EOT, mean: symptoms rated 0 (none) to 4 (very severe)
Method: Subjects were Evaluated as Follows: • Days −28 to −11: Screening procedures were performed. The ANMS GCSI-DD questionnaire was completed daily for at least 14 days prior to randomization (Day 1); • Days −10 to −3: The ANMS GCSI-DD questionnaire was completed daily. A GEBT was performed on a single day within this window, with breath samples obtained twice prior to consumption of a standardized, carbon-13 (^13C)-enriched meal and then at 45, 90, 120, 150, 180, and 240 minutes after meal consumption after an 8-hour fast. […] On Day 14 (±2 days), the PAGI-SYM and Clinical Grading Assessment questionnaires were completed prior to the final dose of study drug. • A GEBT was administered 30 minutes after study drug administration on Day 14 (±2 days). Breath samples were obtained twice prior to ^13C-enriched meal consumption and then at 45, 90, 120, 150, 180, and 240 minutes after meal consumption after an 8-hour fast. If a subject withdrew from the study prior to the Day 14 (±2 days) GEBT, attempts should have been made to perform a GEBT on the last day of study drug administration. Clinical Grading Assessment Scales were also performed.
The ANMS GCSI-DD covers 5 core relevant symptoms of gastroparesis: nausea, early satiety, postprandial fullness, upper abdominal pain, and vomiting. Bloating is included as an exploratory symptom. Symptoms are rated on a severity numeric response scale from 0 (none) to 4 (very severe). Vomiting is captured on a frequency response scale and scored as follows: 0 for no episodes, 1 for 1 episode, 2 for 2 episodes, 3 for 3 episodes, and 4 for 4 or more episodes. Subjects were asked to recall symptoms over the previous 24 hours and complete the ANMS GCSI-DD patient-reported symptom questionnaire for at least 14 days prior to randomization, on the day of randomization, and daily from Days 1 to 14 (±2 days).

[3] = system: cardiac conduction (QRS interval) in healthy subjects; settings: human, in vivo
Method: Categorical T-wave morphology analysis and measurement of PR and QRS intervals were fully performed manually using a semi-automated process in 3 of the 10 ECG replicates at each time point. Final quality control and diagnostic interpretations were performed by the study cardiologist.
An unstructured covariance structure was used to specify the repeated measures at post-dose time points for subject within treatment period. The model also included a subject-specific random effect.

[4] = system: adults with idiopathic or diabetic gastroparesis; test: 12-lead ECG QTcF safety assessment, Phase 2a; format: in vivo, human
Method: Safety was evaluated through assessments of Aes, vital signs, physical examinations, clinical laboratory evaluations (including prolactin), and ECG findings.

[5] = system: adults with idiopathic or diabetic gastroparesis; settings: in vivo
Method: Safety was evaluated through assessments of Aes, vital signs, physical examinations, clinical laboratory evaluations (including prolactin), and ECG findings. Additionally, a single, optional PGx blood sample may have been collected at any time during the subject's participation in the study.
Safety variables included Aes, clinical laboratory results (including prolactin), vital signs, ECGs, and physical examination findings.

[2H]c1c([2H])c([2H])c2c([nH]c(=O)n2CCCN2CCC(n3c(=O)[nH]c4cc(Cl)ccc43)CC2)c1[2H] [Deudomperidone, 1-{3-[4-(5-chloro-2-oxo-2,3-dihydro-1H-1,3-benzodiazol-1-yl)piperidin-1yl]propyl}-2,3-dihydro(4,5,6,7-D4)-1H-1,3-benzodiazol-2-one]
time of highest mean plasma concentration of deuterated domperidone ([1]; 30 mg single dose): 1.5 hours post-dose
time of highest mean plasma concentration of deuterated domperidone ([1]; 100 mg single dose): 2 hours post-dose
ANMS GCSI-DD bloating subscale score, Day 14/EOT, mean ([2]; 5 mg BID, Cohort 3, ITT): 2.33
ANMS GCSI-DD bloating subscale score, change from baseline to Day 14/EOT ([2]; 5 mg BID, Cohort 3, ITT): −0.37
ANMS GCSI-DD bloating subscale score, percent change from baseline to Day 14/EOT ([2]; 5 mg BID, Cohort 3, ITT): −16.16%
ANMS GCSI-DD nausea/vomiting subscale score, Day 14/EOT, mean ([2]; 5 mg BID, Cohort 3, ITT): 1.00
ANMS GCSI-DD nausea/vomiting subscale score, change from baseline to Day 14/EOT ([2]; 5 mg BID, Cohort 3, ITT): −0.52
ANMS GCSI-DD nausea/vomiting subscale score, percent change from baseline to Day 14/EOT ([2]; 5 mg BID, Cohort 3, ITT): −41.08%
ANMS GCSI-DD postprandial fullness/early satiety subscale score, Day 14/EOT, mean ([2]; 5 mg BID, Cohort 3, ITT): 2.00
ANMS GCSI-DD postprandial fullness/early satiety subscale score, change from baseline to Day 14/EOT ([2]; 5 mg BID, Cohort 3, ITT): −0.78
ANMS GCSI-DD postprandial fullness/early satiety subscale score, percent change from baseline to Day 14/EOT ([2]; 5 mg BID, Cohort 3, ITT): −29.47%
ANMS GCSI-DD total score, Day 14/EOT, mean ([2]; 5 mg BID, Cohort 3, ITT): 1.78
ANMS GCSI-DD total score, change from baseline to Day 14/EOT ([2]; 5 mg BID, Cohort 3, ITT): −0.56
ANMS GCSI-DD total score, percent change from baseline to Day 14/EOT ([2]; 5 mg BID, Cohort 3, ITT): −26.84%
ANMS GCSI-DD bloating subscale score, Day 14/EOT, mean ([2]; 10 mg BID, Cohort 1, ITT): 1.76
ANMS GCSI-DD bloating subscale score, change from baseline to Day 14/EOT ([2]; 10 mg BID, Cohort 1, ITT): −1.08
ANMS GCSI-DD bloating subscale score, percent change from baseline to Day 14/EOT ([2]; 10 mg BID, Cohort 1, ITT): −41.78%
ANMS GCSI-DD nausea/vomiting subscale score, Day 14/EOT, mean ([2]; 10 mg BID, Cohort 1, ITT): 0.74
ANMS GCSI-DD nausea/vomiting subscale score, change from baseline to Day 14/EOT ([2]; 10 mg BID, Cohort 1, ITT): −0.89
ANMS GCSI-DD nausea/vomiting subscale score, percent change from baseline to Day 14/EOT ([2]; 10 mg BID, Cohort 1, ITT): −52.41%
ANMS GCSI-DD postprandial fullness/early satiety subscale score, Day 14/EOT, mean ([2]; 10 mg BID, Cohort 1, ITT): 1.71
ANMS GCSI-DD postprandial fullness/early satiety subscale score, change from baseline to Day 14/EOT ([2]; 10 mg BID, Cohort 1, ITT): −1.16
ANMS GCSI-DD postprandial fullness/early satiety subscale score, percent change from baseline to Day 14/EOT ([2]; 10 mg BID, Cohort 1, ITT): −41.38%
ANMS GCSI-DD total score, Day 14/EOT, mean ([2]; 10 mg BID, Cohort 1, ITT): 1.40
ANMS GCSI-DD total score, change from baseline to Day 14/EOT ([2]; 10 mg BID, Cohort 1, ITT): −1.04
ANMS GCSI-DD total score, percent change from baseline to Day 14/EOT ([2]; 10 mg BID, Cohort 1, ITT): −43.64%
ANMS GCSI-DD bloating subscale score, Day 14/EOT, mean ([2]; 20 mg QD, Cohort 2, ITT): 1.47
ANMS GCSI-DD bloating subscale score, change from baseline to Day 14/EOT ([2]; 20 mg QD, Cohort 2, ITT): −1.40
ANMS GCSI-DD bloating subscale score, percent change from baseline to Day 14/EOT ([2]; 20 mg QD, Cohort 2, ITT): −51.82%
ANMS GCSI-DD nausea/vomiting subscale score, Day 14/EOT, mean ([2]; 20 mg QD, Cohort 2, ITT): 0.40
ANMS GCSI-DD nausea/vomiting subscale score, change from baseline to Day 14/EOT ([2]; 20 mg QD, Cohort 2, ITT): −1.20
ANMS GCSI-DD nausea/vomiting subscale score, percent change from baseline to Day 14/EOT ([2]; 20 mg QD, Cohort 2, ITT): −67.94%
ANMS GCSI-DD postprandial fullness/early satiety subscale score, Day 14/EOT, mean ([2]; 20 mg QD, Cohort 2, ITT): 1.37
ANMS GCSI-DD postprandial fullness/early satiety subscale score, change from baseline to Day 14/EOT ([2]; 20 mg QD, Cohort 2, ITT): −1.38
ANMS GCSI-DD postprandial fullness/early satiety subscale score, percent change from baseline to Day 14/EOT ([2]; 20 mg QD, Cohort 2, ITT): −50.14%
ANMS GCSI-DD total score, Day 14/EOT, mean ([2]; 20 mg QD, Cohort 2, ITT): 1.08
ANMS GCSI-DD total score, change from baseline to Day 14/EOT ([2]; 20 mg QD, Cohort 2, ITT): −1.33
ANMS GCSI-DD total score, percent change from baseline to Day 14/EOT ([2]; 20 mg QD, Cohort 2, ITT): −55.24%
ANMS GCSI-DD total score and all subscale scores at Day 14/End of Treatment ([2]; all deudomperidone treatment groups, placebo also decreased): decreased from baseline
LS mean placebo-corrected ΔQRS (ΔΔQRS) [3]: ±1.1 ms
subjects with ≥6% change from baseline in QTcF ([4]; 10 mg BID, Day 14 at 4 hours post-dose): 1 (3.6%) subjects (%)
subjects with ≥6% change from baseline in QTcF ([4]; 10 mg BID, Day 14 at 6 hours post-dose): 1 (4.3%) subjects (%)
subjects with ≥6% change from baseline in QTcF ([4]; 20 mg QD, Day 14 at 4 hours post-dose): 3 (20.0%) subjects (%)
subjects with ≥6% change from baseline in QTcF ([4]; 20 mg QD, Day 14 at 6 hours post-dose): 2 (16.7%) subjects (%)
QTcF of subject meeting alert criteria (never increased above) ([4]; 1 subject, alert at 4 and 6 hours post-dose on Day 14): ≤ 426 ms
QTcF of second subject meeting alert criteria ([4]; Day 7, baseline QTcF average 430 msec): 474 ms
prolongations of the QTcF interval ([4]; all dose groups): no clinically meaningful prolongations
tolerability of multiple doses [5]: generally well tolerated
